Laboratory results taken from US20120165319A1, “INHIBITORS OF INTERLEUKIN-1 BETA CONVERTING ENZYME” (VERTEX PHARMACEUTICALS INCORPORATED, priority 1995, published 2012).
pIC50: −log10 of the molar value. Several values for one entry are separate records, joined by “and”; a condition that tells them apart may be missing. Equal values may be shown once. Read-outs that look alike come from different tables or passages of the source.

How the values were obtained:
IL-1β, human whole blood = assay: Whole blood assay for IL-1β production; assay type: cell-based; settings: read-out: Whole human blood IC50
In short: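 IL-1β was quantified by ELISA in plasma diluted 1:200. The plasma came from EDTA-anticoagulated human whole blood incubated at 30 °C for 16-18 h with LPS (final 5.0 ng/ml) plus a saline serial dilution of compound. Controls were no-LPS, no-inhibitor and highest-vehicle.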

[1] = Pharmacokinetic studies in the mouse (i.v. clearance, plasma levels); assay type: in vivo; settings: CD-1, plasma, iv; mouse, 25 mg/kg
Method: Pharmacokinetic Studies in the Mouse
Sample Preparation and Dosing
Compounds were dissolved in sterile TRIS solution (0.02M or 0.05M) at a concentration of 2.5 mg/ml. Where necessary to ensure a complete solution, the sample was first dissolved in a minimum of dimethylacetamide (maximum of 5% of total solution volume) then diluted with the TRIS solution.
The drug solution was administered to CD-1 mice (Charles River Laboratories—26-31 g) via the tail vein at a dose volume of 10 ml/kg giving a drug dose of 25 mg/kg.
Mice were dosed in groups of 5 for each timepoint (generally from 2 minutes to 2 hours) then at the appropriate time the animals were anaesthetised with halothane and the blood collected into individual heparinized tubes by jugular severance. The blood samples were cooled to 0° C. then the plasma separated and stored at −20° C. until assayed.
Drug concentration in the plasma samples were determined by HPLC analysis with UV or MS (ESP) detection. Reverse phase chromatography was employed using a variety of bonded phases from C1 to C18 with eluents composed of aqueous buffer/acetonitrile mixtures run under isocratic conditions.
Quantitation was by external standard methods with calibration curves constructed by spiking plasma with drug solutions to give concentrations in the range of 0.5 to 50 μg/ml.
Prior to analysis the plasma samples were deproteinated by the addition of acetonitrile, methanol, trichloroacetic acid or perchloric acid followed by centrifugation at 10,000 g for 10 minutes. Sample volumes of 20 μl to 50 μl were injected for analysis.
The drug was dissolved in sterile 0.02M Tris to give a 2.5 mg/ml solution which was administered to […] of 5 male CD-1 mice via the tail vein at a dose of 25 mg/kg. At each of the following timepoints: 2, 5, 10, 15, 20, 30, 45, 60, 90 and 120 minutes a group of animals was anaesthetised and the blood collected into heparinized tubes. After separation the plasma was stored at −20° C. until assayed.
Aliquots of plasma (150 μl) were treated with 5% perchloric acid (5 μl) then mixed by vortexing and allowed to stand for 90 minutes prior to centrifugation. The resulting supernatant was separated and 20 μl was injected for HPLC analysis.
Aliquots of plasma (100 μl) were diluted with acetonitrile (100 μl) then mixed by vortexing for 20 seconds before centrifugation for 10 minutes. The resulting supernatant was separated and 20 μl was injected for HPLC analysis.

[2] = test system: IL-1β production, LPS-challenged mice; assay: In vivo acute assay for efficacy as anti-inflammatory agent: LPS-induced IL-1β production in mice; design: species or system mouse; settings: for IP % Inhibition / POS Inhibition: % inhibition of IL-β production, LPS-challenged mice, 50 mg/kg (Table 3); for POS Inhibition / Inhibition of IL-1β Production, compound administered 0 hr relative to LPS challenge / Inhibition of IL-1β Production, compound administered +1 hr relative to LPS challenge / Inhibition of IL-1β Production, compound administered −1 hr relative to LPS challenge / Inhibition of IL-1β Production, compound administered −2 hr relative to LPS challenge: PO; for inhibition at 50 mg/kg: Mus musculus, po, compound PO, read-out: percent inhibition of IL-1β production; for inhibition at 50 mg/kg / Inhibition of IL-1β Production, compound administered 0 hr relative to LPS challenge / Inhibition of IL-1β Production, compound administered +1 hr relative to LPS challenge / Inhibition of IL-1β Production, compound administered −1 hr relative to LPS challenge / Inhibition of IL-1β Production, compound administered −2 hr relative to LPS challenge: LPS challenged mice, 50 mg/kg; for Inhibition of IL-1β Production, compound administered 0 hr relative to LPS challenge / Inhibition of IL-1β Production, compound administered +1 hr relative to LPS challenge / Inhibition of IL-1β Production, compound administered −1 hr relative to LPS challenge / Inhibition of IL-1β Production, compound administered −2 hr relative to LPS challenge: * = values obtained in subsequent assays (Table 4)
In short: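 Serum IL-1β was measured by ELISA 7 h after an IP dose of 20 mg/kg LPS in CD1 mice, n=6 per group. Compounds in olive oil/DMSO/ethanol 90:5:5 were injected IP 1 h post-LPS (some analogs were dosed at challenge), and separate groups received 50 mg/kg by oral gavage.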

[3] = Homo sapiens, * = values obtained upon reassay
[4] = * = values obtained upon reassay
[5] = 0 h, administered 0 h relative to time of LPS challenge
[6] = 1 h, administered +1 h relative to time of LPS challenge
[7] = 2 h, administered −2 h relative to time of LPS challenge

SMILES | pIC50 (IL-1β, human whole blood; [3]) | inhibition at 50 mg/kg [2, 5] | inhibition at 50 mg/kg [2, 7] | Inhibition of IL-1β Production, compound administered 0 hr relative to LPS challenge [2] | Inhibition of IL-1β Production, compound administered +1 hr relative to LPS challenge [2] | Inhibition of IL-1β Production, compound administered −1 hr relative to LPS challenge [2] | Inhibition of IL-1β Production, compound administered −2 hr relative to LPS challenge [2] | also measured
O=C[C@H](CC(=O)O)NC(=O)[C@@H]1CCCN2C(=O)CC[C@H](NC(=O)CCc3ccccc3)C(=O)N12 [Compound 47a, [3S(1S,9S)]3-(6,10-Dioxo-octahydro-9-(3-phenylpropionylamino)-6H-pyridazino[1,2-a][1,2]diazepine-1-carboxamido)-4-oxobutanoic acid] | 5.29 | – | – | – | – | – | – | clearance [1]: 4.74 L/h/kg
COc1cccc2nc(C(=O)[C@H](CC(=O)O)NC(=O)[C@@H]3CCCN4C(=O)CC[C@H](NC(=O)CCc5ccccc5)C(=O)N34)oc12 [Compound 135a] | 5.30 | – | – | – | – | – | – | clearance [1]: > 6 L/h/kg
O=C(O)C[C@H](NC(=O)[C@@H]1CCCN2C(=O)CC[C@H](NC(=O)CCc3ccccc3)C(=O)N12)C(=O)COC(=O)c1c(Cl)cccc1Cl [Compound 136] | 5.55 | – | – | – | – | – | – | clearance [1]: 5.58 L/h/kg
CS(=O)(=O)N[C@H]1CCC(=O)N2CCC[C@@H](C(=O)N[C@@H](CC(=O)O)C(=O)COC(=O)c3c(Cl)cccc3Cl)N2C1=O [Compound 138] | 5.54 | – | – | – | – | – | – | clearance [1]: 6.96 L/h/kg
N#C[C@H](CC(=O)O)NC(=O)[C@@H]1CCCN2C(=O)CC[C@H](NC(=O)c3ccccc3)C(=O)N12 [Compound 232e, [3S(1S,9S)]9-(Benzoylamino)-3-[6,10-dioxo-1,2,3,4,7,8,9,10-octahydro-6H-pyridazino-[1,2-a][1,2]diazepine-1-carboxamido]-3-cyanopropanoic acid] | – | – | – | – | – | – | – | clearance [1]: 1.32 L/h/kg
O=C[C@H](CC(=O)O)NC(=O)[C@@H]1CCCN2C(=O)CC[C@H](NC(=O)c3ccc(Cl)cc3)C(=O)N12 [Compound 416] | 5.47 | – | – | – | – | – | – | IP % Inhibition [2]: 39%; POS Inhibition [2]: 52%
O=C[C@H](CC(=O)O)NC(=O)[C@@H]1CCCN2C(=O)CC[C@H](NC(=O)c3ccc4nc[nH]c4c3)C(=O)N12 [Compound 434] | 5.74 | 63% | 0% | – | – | – | – | pIC50 (IL-1β, human whole blood; [4]): 5.89; IP % Inhibition [2]: 74%; POS Inhibition [2]: 80%; inhibition at 50 mg/kg [2, 6]: 80%
O=C[C@H](CC(=O)O)NC(=O)[C@@H]1CCCN2C(=O)CC[C@H](NC(=O)c3cc4ccsc4s3)C(=O)N12 [Compound 442] | 5.70 | – | – | – | – | – | – | IP % Inhibition [2]: 0%; POS Inhibition [2]: 10%
CN(C)c1cccc(C(=O)N[C@H]2CCC(=O)N3CCC[C@@H](C(=O)N[C@H](C=O)CC(=O)O)N3C2=O)c1 [Compound 470] | 6.44 | 36% | 0% | – | – | – | – | pIC50 (IL-1β, human whole blood; [4]): 6.30
CN(C)c1ccc(C(=O)N[C@H]2CCC(=O)N3CCC[C@@H](C(=O)N[C@H](C=O)CC(=O)O)N3C2=O)cc1 [Compound 471] | 6.40 | 34% | 0% | – | – | – | – | –
CC(=O)N1C[C@H](NC(=O)c2cc(Cl)c(O)c(Cl)c2)C(=O)N(CC(=O)N[C@H](C=O)CC(=O)O)c2ccccc21 [Compound 656, (3S)-3-[(3S)-2-Oxo-3-(3,5-dichloro, 4-hydroxybenzoyl)amino-5-acetyl-2,3,4,5-tetrahydro-1H-1,5-benzodiazepine-1-acetylamino-]4-oxo-butyric acid] | – | 16% | 31% | – | – | – | – | pIC50 (IL-1β, human whole blood; Homo sapiens, Table 17): 5.80
O=C[C@H](CC(=O)O)NC(=O)CN1C(=O)[C@@H](NC(=O)c2cc(Cl)c(O)c(Cl)c2)CN(C(=O)CO)c2ccccc21 [Compound 662, (3S)-3-[(3S)-2-Oxo-3-(3,5-dichloro-4-hydroxybenzoyl)amino-5-(2-hydroxy)acetyl-2,3,4,5-tetrahydro-1H-1,5-benzodiazepine-1-acetylamino]-4-oxo-butyric acid] | – | 75% | 41% | – | – | – | – | pIC50 (IL-1β, human whole blood; Homo sapiens, Table 17): 6.10
O=C[C@H](CC(=O)O)NC(=O)CN1C(=O)[C@@H](NC(=O)c2ccccc2)CN(C(=O)CO)c2ccccc21 [Compound 668, (3S)-3-[(3S)-2-Oxo-3-benzoylamino-5-(2-hydroxy)acetyl-2,3,4,5-tetrahydro-1H-1,5-benzodiazepine-1-acetylamino]-4-oxo-butyric acid] | – | – | – | – | – | – | – | pIC50 (IL-1β, human whole blood; Homo sapiens, Table 17): 5.43; inhibition at 50 mg/kg [2, 6]: 53%
O=C1C[C@H](NC(=O)[C@@H]2CCCN3C(=O)CC[C@H](NC(=O)C(=O)c4ccccc4)C(=O)N23)C(OCc2ccccc2)O1 (stereo partly drawn) [Compound 2001, [1S,9S(2RS,3S)]9-Benzoylformylamino-6,10-dioxo-1,2,3,4,7,8,9,10-octahydro-N-(2(R,S)-benzyloxy-5-oxotetrahydrofuran-3-yl)-6H-pyridazino[1,2-a][1,2]-diazepine-1-carboxamide] | 5.46 | 58% | 64% | ~57% and 58* % | ~54% and 55* % | ~62% and 62* % | ~63% and 64* % | inhibition at 50 mg/kg [2, 6]: 55%; inhibition at 50 mg/kg ([2]; 1 h, administered −1 h relative to time of LPS challenge): 62%
CC(C)OC1OC(=O)C[C@@H]1NC(=O)[C@@H]1CCCN2C(=O)CC[C@H](NC(=O)c3ccccc3)C(=O)N12 (stereo partly drawn) [Compound 2100a, [1S,9S(2RS,3S)]9-Benzoylamino-6,10-dioxo-1,2,3,4,7,8,9,10-octahydro-N-(2-isopropoxy-5-oxo-tetrahydro-furan-3-yl)-6H-pyridazino-[1,2-a][1,2]diazepine-1-carboxamide] | 6.07 | – | – | 67% | 58% | 71% | 8% | –
CCOC(=O)C[C@H](NC(=O)[C@@H]1CCCN2C(=O)CC[C@H](NC(=O)c3ccccc3)C(=O)N12)C(OCC)OCC [Compound 2100b] | < 4.70 | – | – | 47% | 26% | 0% | 0% | –
COC(=O)C[C@H](NC(=O)[C@@H]1CCCN2C(=O)CC[C@H](NC(=O)c3ccccc3)C(=O)N12)C(OC)OC [Compound 2100c] | < 4.70 | – | – | 85% | 40% | 0% | 0% | –
CC(C)OC(=O)C[C@H](NC(=O)[C@@H]1CCCN2C(=O)CC[C@H](NC(=O)c3ccccc3)C(=O)N12)C(OC(C)C)OC(C)C [Compound 2100d] | < 4.70 | – | – | 52% | 26% | 35% | 42% | –
CCOC1OC(=O)C[C@@H]1NC(=O)[C@@H]1CCCN2C(=O)CC[C@H](NC(=O)c3ccccc3)C(=O)N12 (stereo partly drawn) [Compound 2100e, [1S,9S(2RS,3S)]9-Benzoylamino-6,10-dioxo-1,2,3,4,7,8,9,10-octahydro-N-(2-ethoxy-5-oxo-tetrahydro-furan-3-yl)-6H-pyridazino[1,2-a][1,2]-diazepine-1-carboxamide] | 6.22 | – | – | 94% | 66% | 54% | 49% | –
